This is an account of results in patent US20250262170A1, “COMBINATIONS OF BETA 2-ADRENERGIC RECEPTOR AGONISTS AND BETA 3-ADRENERGIC RECEPTOR AGONISTS, AND MEDICAL USES THEREOF” (ATROGI AB, priority 2022, published 2025).

Test [1] concerns the target T1, human β3-adrenergic receptor (Homo sapiens, UniProt P13945).
T1 construct: expressed in transfected cells
Description: cAMP levels in CHO-K1 cells expressing the human β3-adrenergic receptor. The following applies: 15 min; for Emax at 10 µM: CHO-K1, 0.25 h, read-out: Activity (intracellular cAMP compared to that of isoproterenol). Format: cell-based. The method, then:
CHO-K1 cells stably expressing the human β3-adrenergic receptors were serum-starved overnight and stimulated with an agonist, final concentration 1×10^−5 M, for 15 min in stimulation buffer (HBSS supplemented with 1% BSA, 5 mM HEPES and 1 mM IBMX, pH 7.4) The medium was then aspirated and to end the reaction, 100 μL of 95% EtOH was added to each well of the 24-well plate and cells were kept at −20° C. overnight. The next day EtOH was allowed to evaporate and 250 μL of lysis buffer (1% BSA, 5 mM HEPES and 0.3% Tween-20, pH 7.4) was added to each well. The plate was kept at −80° C. for 30 min and thawed in room temperature. Intracellular cAMP levels were detected using an alpha screen cAMP kit (6760635D from Perkin Elmer). The activity for each compound is compared to that of isoproterenol.
In general terms: Cyclic AMP is a second messenger, typically raised through Gs and lowered through Gi signalling.

The next test concerns the target T2, β2-adrenergic receptor (Rattus norvegicus, UniProt P10608).
T2 construct: endogenous in cells; host or cells: L6 myotubes differentiated from L6 myoblasts
Description: Glucose uptake in L6-myotubes in the presence of the selective β2-adrenergic receptor antagonist ICI-118551. Format: cell-based. The following applies: 3H-2-deoxyglucose, increasing ICI-118551. The method, then:
L6-myoblasts were grown in Dulbecco's Modified Eagle's Medium (DMEM) containing 1 g/L glucose supplemented with 10% fetal bovine serum (FBS), 2 mM L-glutamine, 50 U/mL penicillin, […] streptomycin and 10 mM HEPES. Cells were plated at 1×10^5 cells per mL in 24-well plates. After reaching 90% confluence the cells were grown in medium containing 2% FBS for 7 days where upon cells differentiated into myotubes.
The differentiated L6-myotubes were serum-starved overnight in medium containing 0.5% fatty-acid free BSA and stimulated with Compounds A and B at a final concentration of 1×10^−5 M in the presence of the selective β2-adrenergic receptor antagonist ICI-118551. After 1 h 40 min the cells were washed with warm, glucose free medium twice and another portion of agonist was added to the glucose free medium. After another 20 min of incubation the cells were exposed to 50 nM ^3H-2-deoxyglucose for 10 min before washed in ice cold glucose free medium three times and lysed in 400 μl/well 0.2 M NaOH for 1 h at 60° C. The cell lysate was mixed with 4 ml scintillation buffer (Emulsifier Safe, Perkin Elmer) and the radioactivity was detected in a […] (Tri-Carb 4810TR, Perkin Elmer).

T1 sequence (P13945 whole entry): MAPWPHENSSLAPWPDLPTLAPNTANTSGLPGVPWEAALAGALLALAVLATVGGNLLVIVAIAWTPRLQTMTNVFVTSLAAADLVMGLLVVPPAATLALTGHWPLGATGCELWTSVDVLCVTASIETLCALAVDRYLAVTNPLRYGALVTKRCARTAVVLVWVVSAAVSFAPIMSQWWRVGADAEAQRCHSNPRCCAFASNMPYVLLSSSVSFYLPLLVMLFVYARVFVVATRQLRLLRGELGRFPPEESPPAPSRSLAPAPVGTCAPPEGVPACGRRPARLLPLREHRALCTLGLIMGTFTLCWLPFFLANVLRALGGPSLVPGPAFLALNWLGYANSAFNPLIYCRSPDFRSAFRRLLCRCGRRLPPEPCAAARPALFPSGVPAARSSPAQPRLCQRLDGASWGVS
T2 sequence (P10608 whole entry): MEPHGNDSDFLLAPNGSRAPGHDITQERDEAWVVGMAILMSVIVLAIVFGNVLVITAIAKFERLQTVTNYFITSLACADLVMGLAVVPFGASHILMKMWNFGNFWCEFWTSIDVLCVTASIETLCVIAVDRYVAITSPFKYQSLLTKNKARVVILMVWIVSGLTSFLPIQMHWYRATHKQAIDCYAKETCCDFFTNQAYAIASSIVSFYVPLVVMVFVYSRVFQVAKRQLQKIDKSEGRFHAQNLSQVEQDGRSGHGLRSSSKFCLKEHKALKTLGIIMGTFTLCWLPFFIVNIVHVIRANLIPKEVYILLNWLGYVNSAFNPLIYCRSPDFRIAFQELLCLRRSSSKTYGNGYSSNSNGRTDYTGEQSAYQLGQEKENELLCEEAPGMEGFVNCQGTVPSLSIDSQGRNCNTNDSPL

Consider `O[C@H](c1cccc(F)c1)[C@H]1CC[C@@H](Cc2ccc(Cl)cc2)N1` [Compound 42, (R)-((2R,5S)-5-(4-chloro-benzyl)pyrrolidin-2-yl)(3-fluorophenyl)methanol], for which the Emax at 10 µM in test [1] was > 75%.

Turning to `O[C@H](c1cccc(F)c1)C12CCC(Cc3ccccc3)(CC1)N2` [Compound 43, (R)-(4-benzyl-7-azabicyclo-[2.2.1]heptan-1-yl)(3-fluoro-phenyl)methanol], in test [1], the Emax at 10 µM was 50 to 75%.

`CC(C)(NC[C@H](O)c1cccc(F)c1)[C@H]1CC[C@H](NC(=O)c2ccccc2)CC1` [Compound 44, N-((trans)-4-(2-(((R)-2-(3-fluorophenyl)-2-hydroxy-ethyl)amino)propan-2-yl)-cyclohexyl)benzamide]: the Emax at 10 µM in test [1] is > 75%.

On to `CC(C)(C[C@H]1CC[C@H](NS(C)(=O)=O)CC1)NC[C@H](O)c1cccc(F)c1` [Compound 45, N-((trans)-4-(2-(((R)-2-(3-fluorophenyl)-2-hydroxy-ethyl)amino)-2-methyl-propyl)cyclohexyl)methane-sulfonamide], for which, in test [1] (10 μM), the “Activity (intracellular cAMP compared to that of isoproterenol)” value was “++ (activity of more than 75% of that of isoproterenol at 10 μM)”.

On to `CC(C)(C[C@H]1CC[C@H](NS(C)(=O)=O)CC1)NC[C@H](O)c1cncc(F)c1` [Compound 46, N-((trans)-4-(2-(((R)-2-(5-fluoropyridin-3-yl)-2-hydroxyethyl)amino)-2-methylpropyl)cyclohexyl) methanesulfonamide], for which, in test [1], the Emax at 10 µM is > 75%.

In the case of `COC(=O)[C@H]1CC[C@H](CCC(C)(C)NC[C@H](O)c2cncc(F)c2)CC1` [Compound 47, methyl (trans)-4-(3-(((R)-2-(5-fluoropyridin-3-yl)-2-hydroxyethyl)amino)-3-methylbutyl)cyclohexane-1-carboxylate], the Emax at 10 µM in test [1] was 50 to 75%.

As for `CO[C@H]1CC[C@H](C[C@H]2CC[C@H]([C@H](O)c3ccccc3F)N2)CC1` [Compound 48, (R)-(2-fluorophenyl)((2R,5R)-5-(((trans)-4-methoxycyclo-hexyl)methyl)pyrrolidin-2-yl)-methanol], in test [1], the Emax at 10 µM was in the range of 50 to 75%.

For `CO[C@H]1CC[C@H](C[C@@H]2CC[C@H]([C@H](O)c3ccccc3F)N2)CC1` [Compound 49, (R)-(2-fluorophenyl)((2R,5S)-5-(((trans)-4-methoxycyclo-hexyl)methyl)pyrrolidin-2-yl)-methanol], the Emax at 10 µM in test [1] is 50 to 75%.

Take `CC(C)(CC[C@H]1CC[C@@H](O)CC1)NC[C@H](O)c1ccccc1F` [Compound 50, (cis)-4-(3-(((R)-2-(2-fluoro-phenyl)-2-hydroxyethyl)-amino)-3-methylbutyl)-cyclohexan-1-ol]: the Emax at 10 µM in test [1] was 50 to 75%.

With `CC(C)(CC[C@H]1CC[C@H](O)CC1)NC[C@H](O)c1ccccc1F` [Compound 51, (trans)-4-(3-(((R)-2-(2-fluorophenyl)-2-hydroxy-ethyl)amino)-3-methylbutyl)-cyclohexan-1-ol], the Emax at 10 µM in test [1] was > 75%.

Turning to `CC(C)(C[C@H]1CC[C@H](O)CC1)NC[C@H](O)c1cccc(F)c1` [Compound 52, (trans)-4-(2-(((R)-2-(3-fluorophenyl)-2-hydroxy-ethyl)amino)-2-methyl-propyl)cyclohexan-1-ol], in test [1], the Emax at 10 µM was > 75%.

For `CO[C@H]1CC[C@@H](CC(C)(C)NC[C@H](O)c2cccc(F)c2)CC1` [Compound 53, (R)-1-(3-fluorophenyl)-2-((1-((cis)-4-methoxycyclohexyl)-2-methylpropan-2-yl)-amino)ethan-1-ol], the Emax at 10 µM in test [1] was in the range of 50 to 75%.

Take `CO[C@H]1CC[C@H](C(C)(C)NC[C@H](O)c2cccc(F)c2)CC1` [Compound 54, (R)-1-(3-fluorophenyl)-2-((2-((trans)-4-methoxycyclo-hexyl)propan-2-yl)amino)-ethan-1-ol]: in test [1], the Emax at 10 µM was 50 to 75%.

As for `CC12CC(C1)[C@H]([C@H](O)c1cccc(F)c1)N2` [Compound 55, (R)-(3-fluorophenyl)((R)-1-methyl-2-azabicyclo[2.1.1]-hexan-3-yl)methanol], in test [1], the Emax at 10 µM was 50 to 75%.

As for `O[C@H](c1cccc(F)c1)[C@H]1CCC2(CCCC2)N1` [Compound 56, (R)-(3-fluorophenyl)((R)-1-azaspiro[4.4]nonan-2-yl)-methanol], the Emax at 10 µM in test [1] was > 75%.

As to `CC(C)(C)[C@H]1CC[C@H]([C@H](O)c2cccc(F)c2)N1` [Compound 57, (R)-((2R,5R)-5-(tert-butyl)-pyrrolidin-2-yl)(3-fluoro-phenyl)methanol], the Emax at 10 µM in test [1] fell in the range of 50 to 75%.

On to `CC1(C)CC[C@H]([C@H](O)c2cccc(Cl)c2)N1` [Compound 58, (R)-(3-chlorophenyl)((R)-5,5-dimethylpyrrolidin-2-yl)-methanol], for which the Emax at 10 µM in test [1] lay in the range of 50 to 75%.

Consider `CC(C)(C)NC[C@H](O)c1ccc(F)c(N)c1F` [Compound 59, (R)-1-(3-amino-2,4-difluoro-phenyl)-2-(tert-butylamino)-ethan-1-ol], for which the Emax at 10 µM in test [1] was > 75%.

As for `CC(C)(C)NCC(O)c1ccncc1O` (stereo not shown) [Compound 60, 4-(2-(tert-butylamino)-1-hydroxyethyl)pyridin-3-ol], in test [1], the Emax at 10 µM is > 75%.

As to `CC(C)(C)NC[C@H](O)c1cccc(N)c1F` [Compound 61, (R)-1-(3-amino-2-fluoro-phenyl)-2-(tert-butylamino)-ethan-1-o], the Emax at 10 µM in test [1] is > 75%.

Regarding `CC1(NC[C@H](O)c2cccc(O)c2)CCC1` [Compound 62, (R)-3-(1-hydroxy-2-((1-methylcyclobutyl)amino)-ethyl)phenol], the Emax at 10 µM in test [1] is > 75%.

With `CC1(NC[C@H](O)c2cccc(F)c2)CC1` [Compound 63, (R)-1-(3-fluorophenyl)-2-((1-methylcyclopropyl)amino)-ethan-1-ol], the Emax at 10 µM in test [1] lay within 50 to 75%.

For the compound `CCCCNC[C@H](O)c1ccccc1F` [Compound 64, (R)-2-(butylamino)-1-(2-fluorophenyl)ethan-1-ol], in test [1], the Emax at 10 µM was > 75%.

`CC(C)(C)NC[C@H](O)c1cccc(F)c1F` [Compound 65, (R)-2-(tert-butylamino)-1-(2,3-difluorophenyl)ethan-1-ol]: the Emax at 10 µM in test [1] is > 75%.

`CCC[C@@H](C)NC[C@H](O)c1cccc(F)c1` [Compound 66, (R)-1-(3-fluorophenyl)-2-(((R)-pentan-2-yl)amino)-ethan-1-ol]: the Emax at 10 µM in test [1] was > 75%.

In the case of `CCCCNCC(O)c1ccc(F)c(N)c1F` (stereo not shown) [Compound 67, 1-(3-amino-2,4-difluoro-phenyl)-2-(butylamino)ethan-1-ol], the Emax at 10 µM in test [1] was in the range of 50 to 75%.

As to `CCC[C@H](C)NC[C@H](O)c1cccc(O)c1` [Compound 68, 3-((R)-1-hydroxy-2-(((S)-pentan-2-yl)amino)ethyl)-phenol], in test [1], the Emax at 10 µM was > 75%.

Regarding `CCC[C@@H](C)NC[C@H](O)c1cccc(O)c1` [Compound 69, 3-((R)-1-hydroxy-2-(((R)-pentan-2-yl)amino)ethyl)-phenol], the Emax at 10 µM in test [1] was > 75%.

Consider `CCCCNC[C@H](O)c1ccc(O)cc1` [Compound 70, (R)-4-(2-(butylamino)-1-hydroxyethyl)phenol], for which the Emax at 10 µM in test [1] lay within 50 to 75%.

Turning to `CC(C)(C)NC[C@H](O)c1cccc(F)c1` [Compound A], on β2-adrenergic receptor, the “glucose uptake promoted by the agonist in the presence of ICI-118551” value is “inhibited in a dose-dependent manner”.

With `CC(C)(C)NCC(O)c1cc(Cl)c(N)c(Cl)c1` (stereo not shown) [clenbuterol, reference compound], the “glucose uptake promoted by the agonist in the presence of ICI-118551” value on β2-adrenergic receptor is given as “inhibited in a dose-dependent manner”.
